This test concerns the target T1, α-glucosidase from Saccharomyces cerevisiae.
T1 construct: gene MAL12
Put plainly: pNPG hydrolysis, absorbance […] nm. In kind it is biochemical. The following applies: substrate pNPG (50 uL of 3 mM in 200 uL), 37 °C.

Drawing on article PMC10376420, “Antioxidant, Antidiabetic, and Anti-Obesity Properties of Apple Pulp Extracts (Malus domestica Bork): A Comparative Study of 15 Local and Commercial Cultivars from Spain” (Biology, 2023), this text covers IC50 for 1 compound.

Structures are written as SMILES. ≈ marks a conversion by molar mass, not a printed value.

On to `O=c1c(O)c(-c2ccc(O)c(O)c2)oc2cc(O)cc(O)c12` [Quercetin], for which the concentration for half-maximal inhibition (IC50) (usually the concentration at which inhibition is half-maximal) was 2.98 ± 0.40 µg/mL (≈ 9.86 µM).
